Our source for the Activity values is ChEMBL document CHEMBL2074076, “Reversal of P-glycoprotein-mediated multidrug resistance by Alisol B 23-acetate” (Biochem Pharmacol, 2004).

Data set [1] has as its target T1, ATP-dependent translocase ABCB1 (Homo sapiens, UniProt P08183). The data set is described as follows: TP_TRANSPORTER: drug resistance (vinblastine) in HepG2-DR cells. The format is functional, cell-based.
Data set [2] has as its target T1, ATP-dependent translocase ABCB1. The data set is described as follows: TP_TRANSPORTER: drug resistance (vinblastine) in K562-DR cells. The format is functional, cell-based.

T1 sequence (P08183 whole entry): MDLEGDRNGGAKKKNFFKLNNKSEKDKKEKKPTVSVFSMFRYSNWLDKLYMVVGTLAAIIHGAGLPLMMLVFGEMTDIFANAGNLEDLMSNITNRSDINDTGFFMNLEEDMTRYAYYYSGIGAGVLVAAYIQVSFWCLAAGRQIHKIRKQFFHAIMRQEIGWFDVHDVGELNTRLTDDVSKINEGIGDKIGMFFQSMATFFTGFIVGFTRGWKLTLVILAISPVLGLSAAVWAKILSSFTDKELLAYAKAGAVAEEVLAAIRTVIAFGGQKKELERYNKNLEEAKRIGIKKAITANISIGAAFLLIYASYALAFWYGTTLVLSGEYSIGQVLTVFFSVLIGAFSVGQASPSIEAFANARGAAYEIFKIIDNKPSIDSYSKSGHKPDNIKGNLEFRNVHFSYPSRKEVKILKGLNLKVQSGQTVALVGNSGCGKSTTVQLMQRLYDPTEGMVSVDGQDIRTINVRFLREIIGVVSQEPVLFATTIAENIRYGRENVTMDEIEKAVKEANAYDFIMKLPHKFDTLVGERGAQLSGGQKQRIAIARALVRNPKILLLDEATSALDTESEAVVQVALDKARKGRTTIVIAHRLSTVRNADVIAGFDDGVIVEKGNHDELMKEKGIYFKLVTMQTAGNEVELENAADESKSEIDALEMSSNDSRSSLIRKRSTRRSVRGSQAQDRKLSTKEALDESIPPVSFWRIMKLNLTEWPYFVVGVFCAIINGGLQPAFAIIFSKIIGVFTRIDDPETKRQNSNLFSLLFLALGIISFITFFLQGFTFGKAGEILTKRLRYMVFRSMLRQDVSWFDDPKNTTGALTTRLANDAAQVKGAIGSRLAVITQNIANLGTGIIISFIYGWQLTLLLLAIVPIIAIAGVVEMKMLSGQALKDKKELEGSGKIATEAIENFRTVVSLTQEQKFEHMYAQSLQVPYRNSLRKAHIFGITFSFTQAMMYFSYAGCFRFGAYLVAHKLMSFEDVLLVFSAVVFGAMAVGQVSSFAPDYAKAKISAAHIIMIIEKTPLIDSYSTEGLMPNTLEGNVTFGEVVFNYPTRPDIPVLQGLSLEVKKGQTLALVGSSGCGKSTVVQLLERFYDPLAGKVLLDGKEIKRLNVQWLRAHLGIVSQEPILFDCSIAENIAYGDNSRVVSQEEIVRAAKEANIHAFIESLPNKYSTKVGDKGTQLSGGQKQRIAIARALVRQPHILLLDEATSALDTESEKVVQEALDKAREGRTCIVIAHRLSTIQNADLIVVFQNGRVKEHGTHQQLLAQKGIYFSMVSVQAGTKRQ

As for `C[C@H](C[C@](O)(CC(=O)O)C1OC1(C)C)C1=C2C[C@H](O)[C@@H]3[C@H](CCC4C(C)(C)C(=O)CC[C@@]43C)[C@@]2(C)CC1` (some centres not stated), the Activity result in data set [1] and in data set [2] was “inhibitor [+]” in each case.
